Earlier results, collected in patent publication US20140349947A1, “HAIR GROWTH AGENT (EMBODIMENTS) AND METHOD FOR HAIR REGROWTH” (priority 2012, published 2014).

Key:
[1] = not given; remark: listed apart in the source
[2] = in ointments and gels, dose up to 1,000 IU/g

**Q.** Which Bioavailability does the source give for Low molecular weight heparin here?
**A.** high

**Q.** With heparin sodium [Unfractionated heparin] as the substance, how does the Bioavailability read?
**A.** low

**Q.** And the “Duration of the effects of heparin in tissues” value ([1]; after a single skin application)?
**A.** up to 8 hours

**Q.** What about the “Part of preparation deposited in the upper layers of skin” value ([1]; after application of ointment or gel) of the same substance?
**A.** up to 50%

**Q.** And the “Effect on bleeding time” value [1, 2]?
**A.** does not affect the bleeding time

**Q.** And the Systemic effect [1, 2]?
**A.** does not have a systemic effect
